Experimental data: ChEMBL document CHEMBL5154739, “Structure-activity relationships of N-terminal variants of peptidomimetic tissue transglutaminase inhibitors” (Eur J Med Chem, 2022)

Legend:
[1] = target: T1, Protein-glutamine gamma-glutamyltransferase (Homo sapiens) (UniProt P21980); assay: (§1) Inhibition of TG2 (unknown origin) using Cbz-Glu(gamma-p-nitrophenyl ester)Gly (AL5) as substrate and measured by colorimetric assay
T1 sequence (whole entry): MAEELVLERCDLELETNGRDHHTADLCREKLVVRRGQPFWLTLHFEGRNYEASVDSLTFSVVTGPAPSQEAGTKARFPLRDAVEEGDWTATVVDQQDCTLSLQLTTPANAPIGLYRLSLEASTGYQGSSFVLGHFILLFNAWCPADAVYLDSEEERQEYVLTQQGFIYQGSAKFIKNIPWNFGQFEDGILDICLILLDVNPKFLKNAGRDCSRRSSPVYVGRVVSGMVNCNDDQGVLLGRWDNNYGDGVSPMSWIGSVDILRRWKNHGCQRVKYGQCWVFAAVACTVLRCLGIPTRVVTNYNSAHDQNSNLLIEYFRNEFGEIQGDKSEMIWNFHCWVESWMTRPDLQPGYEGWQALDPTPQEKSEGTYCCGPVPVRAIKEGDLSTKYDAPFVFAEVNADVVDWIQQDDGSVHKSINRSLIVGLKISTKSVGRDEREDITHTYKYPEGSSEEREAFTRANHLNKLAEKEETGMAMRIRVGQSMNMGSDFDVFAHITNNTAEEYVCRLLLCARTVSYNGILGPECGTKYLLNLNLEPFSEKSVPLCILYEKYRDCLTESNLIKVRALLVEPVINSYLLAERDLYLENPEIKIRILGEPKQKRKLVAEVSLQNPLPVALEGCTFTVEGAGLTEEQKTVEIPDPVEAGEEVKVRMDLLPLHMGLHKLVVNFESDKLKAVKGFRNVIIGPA

[2] = target: T2, Protein-glutamine gamma-glutamyltransferase (Homo sapiens, UniProt P21980); assay: as §1
T2 sequence (P21980 whole entry): T1 sequence (whole entry)

[3] = target: T1, Protein-glutamine gamma-glutamyltransferase (Homo sapiens); assay: Inhibition of TG2 (unknown origin) using Cbz-Glu(gamma-p-nitrophenyl ester)Gly (AL5) as substrate assessed as Kinact/Ki ratio and measured by colorimetric assay
[4] = Anti-invasion activity against human SCC-13 cells assessed as inhibition of invasion incubated for 18 hrs by matrigel trans well plate assay; type: functional, cell-based; conditions: SCC-13, 18 h
[5] = Plasma protein binding (unknown origin); type: ADME, cell-free; conditions: read-out: PPB (converted)
MDR1 (P-gp) [6] = assay: Apparent permeability from basolateral to apical side in dog MDCK-MDR1 cells; type: ADME, cell-based, Canis lupus familiaris
[7] = Half-life in plasma (unknown origin); type: ADME, cell-free
MDR1 (P-gp) [8] = assay: Apparent permeability from apical to basolateral side in dog MDCK-MDR1 cells; type: ADME, cell-based, Canis lupus familiaris
MDR1 (P-gp) [9] = assay: Efflux ratio of apparent permeability in dog MDCK-MDR1 cells; type: ADME, cell-based, Canis lupus familiaris
P-gp [10] = assay: Substrate activity at P-gp in dog MDCK cells assessed as apparent permeability across basolateral to apical membrane; type: ADME, cell-based, Canis lupus familiaris; conditions: MDCK-MDR1
P-gp [11] = assay: Substrate activity at P-gp in dog MDCK cells assessed as efflux ratio; type: ADME, cell-based, Canis lupus familiaris; conditions: MDCK-MDR1
P-gp [12] = assay: Substrate activity at P-gp in dog MDCK cells assessed as apparent permeability across apical to basolateral membrane; type: ADME, cell-based, Canis lupus familiaris; conditions: MDCK-MDR1
[13] = Plasma protein binding (unknown origin) assessed as drug recovery; type: ADME, cell-free; conditions: read-out: Drug recovery

C=CC(=O)NCCCC[C@H](NC(=O)OCc1ccccc1)C(=O)N1CCN(C(=O)c2cccc3ccccc23)CC1
Kinact [1]: 1.2 min⁻¹
Ki [2]: 4.8 µM
Ratio [3]: 244 10^3/M/min

C=CC(=O)NCCCC[C@H](NC(=O)c1ccc(F)cc1)C(=O)N1CCN(C(=O)c2cccc3ccccc23)CC1
Kinact [1]: 0.9 min⁻¹
Ratio [3]: 55.4 10^3/M/min

C=CC(=O)NCCCC[C@H](NC(=O)OCc1ccccc1)C(=O)N1CCN(S(=O)(=O)c2cccc3c(N(C)C)cccc23)CC1
EC50 [4]: 3.9 µM
Kinact [1]: 0.38 min⁻¹
Ki [2]: 3.8 µM
Ratio [3]: 100 10^3/M/min

C=CC(=O)NCCCC[C@H](NC(=O)C(C)(C)C)C(=O)N1CCN(C(=O)c2cccc3ccccc23)CC1
Kinact [1]: 0.49 min⁻¹
Ratio [3]: 56.2 10^3/M/min

C=CC(=O)NCCCC[C@H](NC(=O)CC)C(=O)N1CCN(C(=O)c2cccc3ccccc23)CC1
Kinact [1]: 0.53 min⁻¹
Ratio [3]: 103 10^3/M/min

C=CC(=O)NCCCC[C@H](NC(=O)CCCc1ccccc1)C(=O)N1CCN(C(=O)c2cccc3ccccc23)CC1
Kinact [1]: 0.21 min⁻¹
Ratio [3]: 39.6 10^3/M/min

C=CC(=O)NCCCC[C@H](NC(=O)CC1CCCCC1)C(=O)N1CCN(C(=O)c2cccc3ccccc23)CC1
Kinact [1]: 0.26 min⁻¹
Ratio [3]: 20.9 10^3/M/min

C=CC(=O)NCCCC[C@H](NC(=O)OCc1ccccc1)C(=O)NCCOCCOCCNS(=O)(=O)c1cccc2c(N(C)C)cccc12
EC50 [4]: 20 µM
Kinact [1]: 0.41 min⁻¹
Ki [2]: 29 µM
Ratio [3]: 14 10^3/M/min

C=CC(=O)NCCCC[C@H](NC(=O)c1ccc2ccccc2c1)C(=O)N1CCN(C(=O)c2cccc3ccccc23)CC1
Kinact [1]: 0.29 min⁻¹
Ratio [3]: 36.5 10^3/M/min

C=CC(=O)NCCCC[C@H](NC(=O)Cc1ccccc1C)C(=O)N1CCN(C(=O)c2cccc3ccccc23)CC1
fraction unbound [5]: 0.15
Papp B→A (MDR1 (P-gp) [6]): 16.5 ×10⁻⁶ cm/s
half-life [7]: 9.47 h
Papp A→B (MDR1 (P-gp) [8]): 0.32 ×10⁻⁶ cm/s
efflux ratio (MDR1 (P-gp) [9]): 51.6
Kinact [1]: 2.1 min⁻¹
Ratio [3]: 352 10^3/M/min
Papp B→A (P-gp [10]): 3 ×10⁻⁶ cm/s
efflux ratio (P-gp [11]): 0.93
Papp A→B (P-gp [12]): 3.2 ×10⁻⁶ cm/s
recovery [13]: 93%

C=CC(=O)NCCCC[C@H](NC(=O)Cc1cccc(Cl)c1Cl)C(=O)N1CCN(C(=O)c2cccc3ccccc23)CC1
Kinact [1]: 0.46 min⁻¹
Ratio [3]: 170 10^3/M/min

C=CC(=O)NCCCC[C@H](NC(=O)c1ccncc1)C(=O)N1CCN(C(=O)c2cccc3ccccc23)CC1
Kinact [1]: 0.24 min⁻¹
Ratio [3]: 12.7 10^3/M/min

C=CC(=O)NCCCC[C@H](NC(=O)Cc1ccccc1OC)C(=O)N1CCN(C(=O)c2cccc3ccccc23)CC1
Kinact [1]: 1.4 min⁻¹
Ratio [3]: 299 10^3/M/min

C=CC(=O)NCCCC[C@H](NC(=O)c1nccn1C)C(=O)N1CCN(C(=O)c2cccc3ccccc23)CC1
Kinact [1]: 0.18 min⁻¹
Ratio [3]: 11.5 10^3/M/min

C=CC(=O)NCCCC[C@H](NC(=O)Cc1cccc(F)c1)C(=O)N1CCN(C(=O)c2cccc3ccccc23)CC1
Kinact [1]: 0.75 min⁻¹
Ratio [3]: 155 10^3/M/min

C=CC(=O)NCCCC[C@H](NS(=O)(=O)Cc1ccccc1)C(=O)N1CCN(C(=O)c2cccc3ccccc23)CC1
Kinact [1]: 0.53 min⁻¹
Ratio [3]: 11.4 10^3/M/min

C=CC(=O)NCCCC[C@H](NC(=O)Cc1cccc(Cl)c1)C(=O)N1CCN(C(=O)c2cccc3ccccc23)CC1
Kinact [1]: 0.3 min⁻¹
Ratio [3]: 290 10^3/M/min

C=CC(=O)NCCCC[C@H](NC(=O)CCc1ccccc1)C(=O)N1CCN(C(=O)c2cccc3ccccc23)CC1
Kinact [1]: 0.6 min⁻¹
Ratio [3]: 214 10^3/M/min

C=CC(=O)NCCCC[C@H](NC(=O)C1CCCCC1)C(=O)N1CCN(C(=O)c2cccc3ccccc23)CC1
Kinact [1]: 0.33 min⁻¹
Ratio [3]: 33.6 10^3/M/min

C=CC(=O)NCCCC[C@H](NC(=O)Cc1ccccc1C(F)(F)F)C(=O)N1CCN(C(=O)c2cccc3ccccc23)CC1
Kinact [1]: 1 min⁻¹
Ratio [3]: 100 10^3/M/min

C=CC(=O)NCCCC[C@H](NC(C)=O)C(=O)N1CCN(C(=O)c2cccc3ccccc23)CC1
Kinact [1]: 1.45 min⁻¹
Ratio [3]: 44.1 10^3/M/min

C=CC(=O)NCCCC[C@H](NC(=O)C1C2CC3CC(C2)CC1C3)C(=O)N1CCN(C(=O)c2cccc3ccccc23)CC1 (stereo partly drawn)
Kinact [1]: 0.23 min⁻¹
Ratio [3]: 14.9 10^3/M/min

C=CC(=O)NCCCC[C@H](NS(C)(=O)=O)C(=O)N1CCN(C(=O)c2cccc3ccccc23)CC1
Kinact [1]: 0.57 min⁻¹
Ki [2]: 253 µM
Ratio [3]: 22.6 10^3/M/min

C=CC(=O)NCCCC[C@H](NC(=O)Cc1ccccc1Cl)C(=O)N1CCN(C(=O)c2cccc3ccccc23)CC1
EC50 [4]: 92 µM
Kinact [1]: 5.3 min⁻¹
Ratio [3]: 295 10^3/M/min

C=CC(=O)NCCCC[C@H](NC(=O)c1cccc(F)c1)C(=O)N1CCN(C(=O)c2cccc3ccccc23)CC1
Kinact [1]: 0.64 min⁻¹
Ratio [3]: 47.8 10^3/M/min

C=CC(=O)NCCCC[C@H](NC(=O)C1CC1)C(=O)N1CCN(C(=O)c2cccc3ccccc23)CC1
Kinact [1]: 1.02 min⁻¹
Ratio [3]: 96.6 10^3/M/min

C=CC(=O)NCCCC[C@H](NS(=O)(=O)CC)C(=O)N1CCN(C(=O)c2cccc3ccccc23)CC1
Kinact [1]: 0.83 min⁻¹
Ratio [3]: 31.1 10^3/M/min

C=CC(=O)NCCCC[C@H](NC(=O)c1cncn1C)C(=O)N1CCN(C(=O)c2cccc3ccccc23)CC1
Kinact [1]: 0.28 min⁻¹
Ki [2]: 22.3 µM
Ratio [3]: 12.6 10^3/M/min

C=CC(=O)NCCCC[C@H](NS(=O)(=O)c1ccccc1)C(=O)N1CCN(C(=O)c2cccc3ccccc23)CC1
Kinact [1]: 0.63 min⁻¹
Ratio [3]: 7.1 10^3/M/min

C=CC(=O)NCCCC[C@H](NC(=O)c1cccc2ccccc12)C(=O)N1CCN(C(=O)c2cccc3ccccc23)CC1
Kinact [1]: 0.41 min⁻¹
Ratio [3]: 20.1 10^3/M/min

C=CC(=O)NCCCC[C@H](NC(=O)Cc1ccccc1Br)C(=O)N1CCN(C(=O)c2cccc3ccccc23)CC1
EC50 [4]: 94 µM
Kinact [1]: 3.1 min⁻¹
Ratio [3]: 310 10^3/M/min

C=CC(=O)NCCCC[C@H](NC(=O)Cc1ccc(F)cc1F)C(=O)N1CCN(C(=O)c2cccc3ccccc23)CC1
Kinact [1]: 0.62 min⁻¹
Ratio [3]: 224 10^3/M/min

C=CC(=O)NCCCC[C@H](NC(=O)Cc1ccccc1)C(=O)N1CCN(c2ccc([N+](=O)[O-])nc2)CC1
Ratio [3]: 508 10^3/M/min

C=CC(=O)NCCCC[C@H](NC(=O)Cc1ccccc1)C(=O)N1CCN(c2cccnc2)CC1
Ratio [3]: 391 10^3/M/min

C=CC(=O)NCCCC[C@H](NC(=O)Cc1ccc(F)cc1)C(=O)N1CCN(C(=O)c2cccc3ccccc23)CC1
Kinact [1]: 0.49 min⁻¹
Ratio [3]: 119 10^3/M/min

C=CC(=O)NCCCC[C@H](NC(=O)c1ccccc1F)C(=O)N1CCN(C(=O)c2cccc3ccccc23)CC1
Kinact [1]: 0.39 min⁻¹
Ratio [3]: 39.4 10^3/M/min

C=CC(=O)NCC(=O)N1CCN(S(=O)(=O)c2cccc3c(N(C)C)cccc23)CC1
Kinact [1]: 0.387 min⁻¹
Ki [2]: 1.31 µM

C=CC(=O)NCCCC[C@H](NC(=O)c1cccnc1)C(=O)N1CCN(C(=O)c2cccc3ccccc23)CC1
Kinact [1]: 0.59 min⁻¹
Ratio [3]: 23.3 10^3/M/min

C=CC(=O)NCCCC[C@H](NC(=O)Cc1ccc(Cl)c(Cl)c1)C(=O)N1CCN(C(=O)c2cccc3ccccc23)CC1
Kinact [1]: 0.08 min⁻¹
Ratio [3]: 131 10^3/M/min

C=CC(=O)NCCCC[C@H](NC(=O)c1ccccn1)C(=O)N1CCN(C(=O)c2cccc3ccccc23)CC1
Kinact [1]: 0.39 min⁻¹
Ratio [3]: 9.6 10^3/M/min

C=CC(=O)NCCCC[C@H](NC(=O)c1cn(C)cn1)C(=O)N1CCN(C(=O)c2cccc3ccccc23)CC1
Kinact [1]: 0.46 min⁻¹
Ki [2]: 28.7 µM
Ratio [3]: 16 10^3/M/min

C=CC(=O)NCCCC[C@H](NC(=O)C(C)C)C(=O)N1CCN(C(=O)c2cccc3ccccc23)CC1
Kinact [1]: 0.65 min⁻¹
Ratio [3]: 65.1 10^3/M/min

C=CC(=O)NCCCC[C@H](NC(=O)CC(C)C)C(=O)N1CCN(C(=O)c2cccc3ccccc23)CC1
Kinact [1]: 0.64 min⁻¹
Ratio [3]: 66.7 10^3/M/min
